In US8309718B2, “4-pyrazolyl-N-arylpyrimidin-2-amines and 4-pyrazolyl-N-heteroarylpyrimidin-2-amines as janus kinase inhibitors” (Incyte Corporation, priority 2007, dated 2012):

The molecules below were run against T1, human JAK2 (Homo sapiens, UniProt O60674) (assay: In vitro JAK kinase assay (HTRF, phosphorylation of biotinylated peptide)). Conditions: catalytic domain a.a. 828-1132, 30 μM ATP, 500 nM peptide, room temperature 1 hr; read-out: JAK-2 IC50.
T1 construct: JAK2 (a.a. 828-1132); His tag (N); made in house; host or cells: insect cells (baculovirus)
Format: biochemical
How it was run: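 His-tagged human JAK2 catalytic domain (a.a. 828-1132), baculovirus/insect-cell expressed; phosphorylation of 500 nM biotinylated peptide at 30 μM ATP in 50 mM Tris pH 7.8, 100 mM NaCl, 5 mM DTT, 0.01% BSA. 1 h at room temperature, EDTA stop, HTRF read (Eu-Py20/SA-APC); IC50.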

T1 sequence (O60674 828-1132): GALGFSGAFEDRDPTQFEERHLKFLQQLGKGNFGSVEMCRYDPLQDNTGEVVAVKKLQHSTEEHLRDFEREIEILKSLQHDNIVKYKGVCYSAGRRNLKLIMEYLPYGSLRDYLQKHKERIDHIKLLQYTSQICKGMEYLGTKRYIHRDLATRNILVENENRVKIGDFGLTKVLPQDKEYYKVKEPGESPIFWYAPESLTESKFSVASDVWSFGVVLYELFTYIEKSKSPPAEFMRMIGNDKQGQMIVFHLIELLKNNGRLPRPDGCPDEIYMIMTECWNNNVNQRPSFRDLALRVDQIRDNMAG

| IC50 | Compound |
| --- | --- |
| < 100 nM | N#CCC1(n2cc(-c3ccnc(Nc4ccc(N5CCOCC5)cc4)n3)cn2)CCN(C(=O)c2ccno2)CC1 [Example 94, 2-(1-(isoxazole-5-carbonyl)-4-(4-(2-(4-morpholinophenylamino)pyrimidin-4-yl)-1H-pyrazol-1-yl)piperidin-4-yl)acetonitrile] |
| < 100 nM | CN1CCCC1CCNC(=O)c1cccc(Nc2nccc(-c3cnn(C(CC#N)C4CCCC4)c3)n2)c1 (stereo not shown) [Example 149, 3-(4-(1-(2-cyano-1-cyclopentylethyl)-1H-pyrazol-4-yl)pyrimidin-2-ylamino)-N-(2-(1-methylpyrrolidin-2-yl)ethyl)benzamide] |
| < 100 nM | N#CCC(C1CCCC1)n1cc(-c2ccnc(Nc3cccc(C(=O)NCCN4CCNC4=O)c3)n2)cn1 (stereo not shown) [Example 159, 3-(4-(1-(2-cyano-1-cyclopentylethyl)-1H-pyrazol-4-yl)pyrimidin-2-ylamino)-N-(2-(2-oxoimidazolidin-1-yl)ethyl)benzamide] |
| < 100 nM | N#CCC(C1CCCC1)n1cc(-c2ccnc(Nc3cccc(NC(=O)O[C@@H]4CCOC4)c3)n2)cn1 (stereo partly drawn) [Example 200, (R)-tetrahydrofuran-3-yl 3-(4-(1-(2-cyano-1-cyclopentylethyl)-1H-pyrazol-4-yl)pyrimidin-2-ylamino)phenylcarbamate] |
| < 100 nM | N#CCC(C1CCCC1)n1cc(-c2ccnc(Nc3ccc(NC(=O)CN4CC[C@@H](O)C4)cc3)n2)cn1 (stereo partly drawn) [Example 204, N-(4-(4-(1-(2-cyano-1-cyclopentylethyl)-1H-pyrazol-4-yl)pyrimidin-2-ylamino)phenyl)-2-((R)-3-hydroxypyrrolidin-1-yl)acetamide] |
| < 100 nM | CC(=O)N[C@H]1CCN(C(=O)c2ccc(Nc3nccc(-c4cnn(C(CC#N)C5CCCC5)c4)n3)cc2)C1 (stereo partly drawn) [Example 222, N-((3S)-1-(4-(4-(1-(2-cyano-1-cyclopentylethyl)-1H-pyrazol-4-yl)pyrimidin-2-ylamino)benzoyl)pyrrolidin-3-yl)acetamide] |
| < 100 nM | CCS(=O)(=O)N1CC(CC#N)(n2cc(-c3ccnc(Nc4ccc(C(=O)N5CCOCC5)cc4)n3)cn2)C1 [Example 255, 2-(1-(ethylsulfonyl)-3-(4-(2-(4-(morpholine-4-carbonyl)phenylamino)pyrimidin-4-yl)-1H-pyrazol-1-yl)azetidin-3-yl)acetonitrile] |
| < 100 nM | CCS(=O)(=O)N1CC(CC#N)(n2cc(-c3ccnc(Nc4ccc(C(=O)N5CCC(O)CC5)cc4)n3)cn2)C1 [Example 256, 2-(1-(ethylsulfonyl)-3-(4-(2-(4-(4-hydroxypiperidine-1-carbonyl)phenylamino)pyrimidin-4-yl)-1H-pyrazol-1-yl)azetidin-3-yl)acetonitrile] |
| < 100 nM | CCS(=O)(=O)N1CC(CC#N)(n2cc(-c3ccnc(Nc4ccc(C(=O)N5[C@@H]6CC[C@H]5C[C@@H](O)C6)cc4)n3)cn2)C1 [Example 257, 2-(1-(ethylsulfonyl)-3-(4-(2-(4-((3-endo)-3-hydroxy-8-azabicyclo[3.2.1]octane-8-carbonyl)phenylamino)pyrimidin-4-yl)-1H-pyrazol-1-yl)azetidin-3-yl)acetonitrile] |
| < 100 nM | CCS(=O)(=O)N1CC(CC#N)(n2cc(-c3ccnc(Nc4ccc(C(=O)N5CCCC5)cc4)n3)cn2)C1 [Example 258, 2-(1-(ethylsulfonyl)-3-(4-(2-(4-(pyrrolidine-1-carbonyl)phenylamino)pyrimidin-4-yl)-1H-pyrazol-1-yl)azetidin-3-yl)acetonitrile] |
| < 100 nM | CCS(=O)(=O)N1CC(CC#N)(n2cc(-c3ccnc(Nc4ccc(C(=O)NC5CCOCC5)cc4)n3)cn2)C1 [Example 259, 4-(4-(1-(3-(cyanomethyl)-1-(ethylsulfonyl)azetidin-3-yl)-1H-pyrazol-4-yl)pyrimidin-2-ylamino)-N-(tetrahydro-2H-pyran-4-yl)benzamide] |
| < 100 nM | CCS(=O)(=O)N1CC(CC#N)(n2cc(-c3ccnc(Nc4ccc(C(=O)N5CCC5)cc4)n3)cn2)C1 [Example 273, 2-(3-(4-(2-(4-(azetidine-1-carbonyl)phenylamino)pyrimidin-4-yl)-1H-pyrazol-1-yl)-1-(ethylsulfonyl)azetidin-3-yl)acetonitrile] |
| < 100 nM | CCS(=O)(=O)N1CC(CC#N)(n2cc(-c3ccnc(Nc4ccc(C(=O)N5C6CC7CC5CC(C6)O7)cc4)n3)cn2)C1 [Example 274, 1-(ethylsulfonyl)-3-(4-(2-(4-(2-oxa-6-azatricyclo[3.3.1.1(3,7)]dec-6-ylcarbonyl)phenyl)aminopyrimidin-4-yl)-1H-pyrazol-1-yl)azetidin-3-ylacetonitrile] |
| < 100 nM | CCS(=O)(=O)N1CC(CC#N)(n2cc(-c3ccnc(Nc4ccc(C(=O)N5CCC(OC)CC5)cc4)n3)cn2)C1 [Example 275, (1-(ethylsulfonyl)-3-4-(2-(4-((4-methoxypiperidin-1-yl)carbonyl)phenylamino)pyrimidin-4-yl)-1H-pyrazol-1-ylazetidin-3-yl)acetonitrile] |
| < 100 nM | CCS(=O)(=O)N1CC(CC#N)(n2cc(-c3ccnc(Nc4ccc(C(=O)N5CC[C@@H](C#N)C5)cc4)n3)cn2)C1 [Example 276, (R)-1-(4-(4-(1-(3-(cyanomethyl)-1-(ethylsulfonyl)azetidin-3-yl)-1H-pyrazol-4-yl)pyrimidin-2-ylamino)benzoyl)pyrrolidine-3-carbonitrile] |
| < 100 nM | CCS(=O)(=O)N1CC(CC#N)(n2cc(-c3ccnc(Nc4ccc(C(=O)N5CC[C@H](OC)C5)cc4)n3)cn2)C1 [Example 277, (S)-2-(1-(ethylsulfonyl)-3-(4-(2-(4-(3-methoxypyrrolidine-1-carbonyl)phenylamino)pyrimidin-4-yl)-1H-pyrazol-1-yl)azetidin-3-yl)acetonitrile] |
| < 100 nM | CCS(=O)(=O)N1CC(CC#N)(n2cc(-c3ccnc(Nc4ccc(C(=O)N5CC[C@@H](O)C5)cc4)n3)cn2)C1 [Example 278, (R)-2-(1-(ethylsulfonyl)-3-(4-(2-(4-(3-hydroxypyrrolidine-1-carbonyl)phenylamino)pyrimidin-4-yl)-1H-pyrazol-1-yl)azetidin-3-yl)acetonitrile] |
| < 100 nM | CCS(=O)(=O)N1CC(CC#N)(n2cc(-c3ccnc(Nc4ccc(C(=O)N5CCN(C)CC5)cc4)n3)cn2)C1 [Example 279, 2-(1-(ethylsulfonyl)-3-(4-(2-(4-(4-methylpiperazine-1-carbonyl)phenylamino)pyrimidin-4-yl)-1H-pyrazol-1-yl)azetidin-3-yl)acetonitrile] |
| < 100 nM | CCS(=O)(=O)N1CC(CC#N)(n2cc(-c3ccnc(Nc4ccc(C(=O)N5CC[C@@H](NC(C)=O)C5)cc4)n3)cn2)C1 [Example 280, (R)—N-(1-(4-(4-(1-(3-(cyanomethyl)-1-(ethylsulfonyl)azetidin-3-yl)-1H-pyrazol-4-yl)pyrimidin-2-ylamino)benzoyl)pyrrolidin-3-yl)acetamide] |
| < 100 nM | CCS(=O)(=O)N1CC(CC#N)(n2cc(-c3ccnc(Nc4ccc(C(=O)N5CCN(C(C)=O)CC5)cc4)n3)cn2)C1 [Example 281, 2-(3-(4-(2-(4-(4-acetylpiperazine-1-carbonyl)phenylamino)pyrimidin-4-yl)-1H-pyrazol-1-yl)-1-(ethylsulfonyl)azetidin-3-yl)acetonitrile] |
| < 100 nM | CCS(=O)(=O)N1CC(CC#N)(n2cc(-c3ccnc(Nc4ccc(C(=O)N5CC[C@H](F)C5)cc4)n3)cn2)C1 [Example 283, (S)-2-(1-(ethylsulfonyl)-3-(4-(2-(4-(3-fluoropyrrolidine-1-carbonyl)phenylamino)pyrimidin-4-yl)-1H-pyrazol-1-yl)azetidin-3-yl)acetonitrile] |
| < 100 nM | CCOC(=O)N1CCC(NC(=O)c2ccc(Nc3nccc(-c4cnn(C5(CC#N)CN(S(=O)(=O)CC)C5)c4)n3)cc2)CC1 [Example 284, Ethyl 4-(4-(4-(1-(3-(cyanomethyl)-1-(ethylsulfonyl)azetidin-3-yl)-1H-pyrazol-4-yl)pyrimidin-2-ylamino)benzamido)piperidine-1-carboxylate] |
| < 100 nM | N#CCC1(n2cc(-c3ccnc(Nc4ccc(C(=O)N5CC[C@@H](C#N)C5)cc4)n3)cn2)CC(C#N)C1 (stereo partly drawn) [Example 297, (R)-1-(4-(4-(1-(3-cyano-1-(cyanomethyl)cyclobutyl)-1H-pyrazol-4-yl)pyrimidin-2-ylamino)benzoyl)pyrrolidine-3-carbonitrile] |
| < 100 nM | CC(=O)N[C@@H]1CCN(C(=O)c2ccc(Nc3nccc(-c4cnn(C5(CC#N)CC(C#N)C5)c4)n3)cc2)C1 (stereo partly drawn) [Example 299, (R)—N-(1-(4-(4-(1-(3-cyano-1-(cyanomethyl)cyclobutyl)-1H-pyrazol-4-yl)pyrimidin-2-ylamino)benzoyl)pyrrolidin-3-yl)acetamide] |
| < 100 nM | N#CCC1(n2cc(-c3ccnc(Nc4ccc(C(=O)N5[C@@H]6CC[C@H]5C[C@@H](O)C6)cc4)n3)cn2)CC(C#N)C1 (stereo partly drawn) [Example 300, 3-(cyanomethyl)-3-(4-(2-(4-((3-endo)-3-hydroxy-8-azabicyclo[3.2.1]octane-8-carbonyl)phenylamino)pyrimidin-4-yl)-1H-pyrazol-1-yl)cyclobutanecarbonitrile] |
